According to US20230079819A1, “COMPOUNDS AND USES THEREOF” (Foghorn Therapeutics Inc., priority 2019, published 2023):

Columns and labels:
[1] = molecular target: T1, BRG-1 (Homo sapiens, UniProt P51532); experiment: ATPase catalytic activity of BRG-1, ADP-Glo in vitro biochemical assay; settings: ATPase catalytic activity, 30 nM BRG-1, 400 μM ATP, read-out: BRG1 IP50
T1 construct: made in house; host or cells: High Five insect cells

[2] = molecular target: T2, BRM (Homo sapiens, UniProt P51531); experiment: ATPase catalytic activity of BRM, ADP-Glo in vitro biochemical assay; settings: ATPase catalytic activity, 30 nM BRM, 400 μM ATP, read-out: BRM IP50
T2 construct: made in house; host or cells: High Five insect cells
T2 sequence (P51531 whole entry): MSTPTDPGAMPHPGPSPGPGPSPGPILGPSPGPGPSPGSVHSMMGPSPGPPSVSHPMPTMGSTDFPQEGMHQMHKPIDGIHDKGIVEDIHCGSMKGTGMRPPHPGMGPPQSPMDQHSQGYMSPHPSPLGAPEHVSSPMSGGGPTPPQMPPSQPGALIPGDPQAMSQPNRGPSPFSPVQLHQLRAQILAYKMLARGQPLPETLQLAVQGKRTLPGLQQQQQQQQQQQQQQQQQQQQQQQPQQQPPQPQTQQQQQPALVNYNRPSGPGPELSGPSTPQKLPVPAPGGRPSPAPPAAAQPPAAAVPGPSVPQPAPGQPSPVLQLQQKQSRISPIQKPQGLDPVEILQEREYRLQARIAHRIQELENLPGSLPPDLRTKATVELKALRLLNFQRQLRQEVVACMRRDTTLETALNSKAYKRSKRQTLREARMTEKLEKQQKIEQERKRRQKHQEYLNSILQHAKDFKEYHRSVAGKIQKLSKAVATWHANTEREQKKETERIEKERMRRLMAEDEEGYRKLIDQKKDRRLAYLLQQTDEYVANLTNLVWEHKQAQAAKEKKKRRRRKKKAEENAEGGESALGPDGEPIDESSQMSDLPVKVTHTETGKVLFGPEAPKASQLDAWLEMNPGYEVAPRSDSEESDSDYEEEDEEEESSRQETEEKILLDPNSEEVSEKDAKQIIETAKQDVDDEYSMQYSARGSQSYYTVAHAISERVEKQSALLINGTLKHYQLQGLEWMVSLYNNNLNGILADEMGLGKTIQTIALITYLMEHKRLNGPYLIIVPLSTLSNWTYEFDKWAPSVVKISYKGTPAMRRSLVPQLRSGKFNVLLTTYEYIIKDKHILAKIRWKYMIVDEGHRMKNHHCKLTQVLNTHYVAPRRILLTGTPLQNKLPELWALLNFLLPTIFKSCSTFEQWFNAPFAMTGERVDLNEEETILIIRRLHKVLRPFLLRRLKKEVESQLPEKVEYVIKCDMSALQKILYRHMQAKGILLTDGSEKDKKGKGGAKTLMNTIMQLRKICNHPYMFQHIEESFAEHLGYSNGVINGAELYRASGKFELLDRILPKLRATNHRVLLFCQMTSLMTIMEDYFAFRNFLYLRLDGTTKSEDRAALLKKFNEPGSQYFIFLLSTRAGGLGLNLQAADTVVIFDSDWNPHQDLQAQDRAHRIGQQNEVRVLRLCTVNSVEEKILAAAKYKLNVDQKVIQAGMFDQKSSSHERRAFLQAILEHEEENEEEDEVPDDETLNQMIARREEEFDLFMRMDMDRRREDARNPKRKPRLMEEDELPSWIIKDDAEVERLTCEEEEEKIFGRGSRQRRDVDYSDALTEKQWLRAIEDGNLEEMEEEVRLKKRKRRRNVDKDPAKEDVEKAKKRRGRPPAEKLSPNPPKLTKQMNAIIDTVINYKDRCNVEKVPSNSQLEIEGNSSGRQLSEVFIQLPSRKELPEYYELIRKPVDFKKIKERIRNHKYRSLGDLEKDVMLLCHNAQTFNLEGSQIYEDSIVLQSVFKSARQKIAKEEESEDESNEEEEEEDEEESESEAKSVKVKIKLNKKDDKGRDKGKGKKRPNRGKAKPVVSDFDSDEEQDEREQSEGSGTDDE

T1 sequence (P51532 whole entry): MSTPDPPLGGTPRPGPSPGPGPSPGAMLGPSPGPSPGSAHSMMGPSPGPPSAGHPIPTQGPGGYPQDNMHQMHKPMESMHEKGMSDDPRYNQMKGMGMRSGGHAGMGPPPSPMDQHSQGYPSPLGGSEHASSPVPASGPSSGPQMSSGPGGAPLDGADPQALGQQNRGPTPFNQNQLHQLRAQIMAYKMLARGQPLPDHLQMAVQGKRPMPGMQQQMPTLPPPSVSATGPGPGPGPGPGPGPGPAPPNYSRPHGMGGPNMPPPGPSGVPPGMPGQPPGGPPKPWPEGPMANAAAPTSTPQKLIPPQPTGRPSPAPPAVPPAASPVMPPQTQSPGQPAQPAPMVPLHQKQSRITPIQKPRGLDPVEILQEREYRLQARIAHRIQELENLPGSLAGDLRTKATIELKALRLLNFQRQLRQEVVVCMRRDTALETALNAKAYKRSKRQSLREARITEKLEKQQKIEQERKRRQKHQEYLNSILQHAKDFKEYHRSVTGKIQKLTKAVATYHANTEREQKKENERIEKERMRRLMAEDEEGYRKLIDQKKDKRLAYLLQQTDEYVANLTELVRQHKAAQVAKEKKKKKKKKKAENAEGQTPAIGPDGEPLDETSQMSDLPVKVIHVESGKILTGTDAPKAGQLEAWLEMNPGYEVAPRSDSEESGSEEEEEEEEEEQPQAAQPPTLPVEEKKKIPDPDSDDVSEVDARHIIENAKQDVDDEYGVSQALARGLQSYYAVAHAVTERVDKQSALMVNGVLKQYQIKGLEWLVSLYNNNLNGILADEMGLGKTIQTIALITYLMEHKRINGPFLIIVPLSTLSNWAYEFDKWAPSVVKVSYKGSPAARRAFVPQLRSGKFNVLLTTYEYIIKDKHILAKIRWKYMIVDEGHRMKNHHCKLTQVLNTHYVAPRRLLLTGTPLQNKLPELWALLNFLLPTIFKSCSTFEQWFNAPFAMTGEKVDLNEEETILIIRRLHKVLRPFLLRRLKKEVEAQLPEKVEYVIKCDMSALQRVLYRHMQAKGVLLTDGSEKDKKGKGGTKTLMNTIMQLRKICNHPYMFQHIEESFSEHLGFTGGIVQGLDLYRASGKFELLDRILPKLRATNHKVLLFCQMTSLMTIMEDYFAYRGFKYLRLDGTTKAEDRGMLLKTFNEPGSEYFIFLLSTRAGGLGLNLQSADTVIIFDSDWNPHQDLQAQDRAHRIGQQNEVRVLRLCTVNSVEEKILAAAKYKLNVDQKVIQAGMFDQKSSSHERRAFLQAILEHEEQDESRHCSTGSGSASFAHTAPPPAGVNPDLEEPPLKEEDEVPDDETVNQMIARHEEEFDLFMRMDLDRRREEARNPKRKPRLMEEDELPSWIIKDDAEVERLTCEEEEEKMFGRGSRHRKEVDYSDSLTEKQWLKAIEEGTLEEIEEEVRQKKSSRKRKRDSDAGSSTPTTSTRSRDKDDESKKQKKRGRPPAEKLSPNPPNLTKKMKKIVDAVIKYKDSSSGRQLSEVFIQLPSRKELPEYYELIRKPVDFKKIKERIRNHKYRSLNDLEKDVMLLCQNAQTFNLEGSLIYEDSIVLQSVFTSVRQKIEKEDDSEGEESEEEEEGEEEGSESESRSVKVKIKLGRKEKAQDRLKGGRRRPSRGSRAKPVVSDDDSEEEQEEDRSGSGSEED

IC50 [1] [nM]	IC50 [2] [nM]	SMILES
> 10	> 10	COc1cc(-c2csc(NC(=O)CNC(=O)c3ccn(S(C)(=O)=O)c3)n2)ccc1F [Compound 718]
< 10	< 10	CS(=O)(=O)n1ccc(C(=O)NCC(=O)Nc2nc(-c3cc(F)c4c(c3)C(F)(F)CC4)cs2)c1 [Compound 719]
> 10	> 10	CS(=O)(=O)n1ccc(C(=O)NCC(=O)Nc2nc(-c3ccc4c(c3)C(F)(F)CC4)cs2)c1 [Compound 720]
> 10	> 10	COC[C@H](NC(=O)c1ccn(S(C)(=O)=O)c1)C(=O)Nc1nc(-c2cc(Cl)cc(C#N)c2)cs1 [Compound 721]
> 10	> 10	CS(=O)(=O)n1ccc(C(=O)NCC(=O)Nc2nc(-c3cc(Cl)cc(C#N)c3)cs2)c1 [Compound 722]
< 10	< 10	COC[C@H](NC(=O)c1ccn(S(C)(=O)=O)c1)C(=O)Nc1nc(-c2cc(F)cc(OC)c2)cs1 [Compound 726]
> 10	< 10	CC(C)(C)n1ccc(C(=O)NCC(=O)Nc2nc(-c3cccc(N4CC[C@@H]5COC[C@H]5C4)n3)cs2)c1 [Compound 727]
> 10	> 10	COC[C@H](NC(=O)c1ccn(S(C)(=O)=O)c1)C(=O)Nc1nc(-c2ccc3c(c2)OC(F)(F)O3)cs1 [Compound 728]
< 10	< 10	COC[C@H](NC(=O)c1ccn(C2(C#N)CCC2)c1)C(=O)Nc1nc(-c2cccc(N3C[C@@H](C)O[C@@H](C)C3)n2)cs1 [Compound 730]
< 10	< 10	C[C@@H]1CN(c2cccc(-c3csc(NC(=O)CNC(=O)c4ccn(C5(C#N)CCC5)c4)n3)n2)C[C@H](C)O1 [Compound 731]
> 10	> 10	COC[C@H](NC(=O)c1ccn(S(C)(=O)=O)c1)C(=O)Nc1nc(-c2ccc3c(c2)C(F)(F)CC3)cs1 [Compound 732]
< 10	< 10	COC[C@H](NC(=O)c1ccn(S(C)(=O)=O)c1)C(=O)Nc1nc(-c2cc(F)c3c(c2)C(F)(F)CC3)cs1 [Compound 733]
< 10	< 10	COC[C@H](NC(=O)c1ccn(S(C)(=O)=O)c1)C(=O)Nc1nc(-c2cc(C)cc(N3C[C@@H](C)O[C@@H](C)C3)n2)cs1 [Compound 734]
> 10	> 10	COC[C@H](NC(=O)c1ccn(S(C)(=O)=O)c1)C(=O)Nc1nc(-c2ccc3c(c2)CCN3C)cs1 [Compound 735]
< 10	< 10	C[C@@H]1CN(c2cccc(-c3csc(NC(=O)CNC(=O)c4ccn(C5(CF)COC5)c4)n3)n2)C[C@H](C)O1 [Compound 736]
< 10	< 10	C[C@@H]1CN(c2cccc(-c3csc(NC(=O)CNC(=O)c4ccn(C5(C(F)F)CC5)c4)n3)n2)C[C@H](C)O1 [Compound 737]
< 10	< 10	COC[C@H](NC(=O)c1ccn(S(C)(=O)=O)c1)C(=O)Nc1nc(-c2cc(F)cc(-c3cnn(C)n3)c2)cs1 [Compound 738]
< 10	< 10	COC[C@H](NC(=O)c1ccn(C(C)(C)C#N)c1)C(=O)Nc1nc(-c2cc(F)cc(-c3cnn(C)n3)c2)cs1 [Compound 739]
< 10	< 10	COC[C@H](NC(=O)c1ccn(C(C)(C)C#N)c1)C(=O)Nc1nc(-c2cc(C)cc(N3C[C@@H](C)O[C@@H](C)C3)n2)cs1 [Compound 740]
> 10	> 10	CS(=O)(=O)n1ccc(C(=O)NCC(=O)Nc2nc(-c3cccc(C45CCOCC4C5)c3)cs2)c1 (stereo not drawn) [Compound 743]
> 10	> 10	CC(C)(C)n1ccc(C(=O)NCC(=O)Nc2nc(-c3cccc(C45CCOCC4C5)c3)cs2)c1 (stereo not drawn) [Compound 744]
< 10	< 10	CS(=O)(=O)n1ccc(C(=O)NCC(=O)Nc2nc(-c3cccc(N4CC[C@H]5COC[C@@H]5C4)n3)cs2)c1 [Compound 745]
< 10	< 10	CS(=O)(=O)n1ccc(C(=O)NCC(=O)Nc2nc(-c3cccc(N4CC[C@@H]5COC[C@H]5C4)n3)cs2)c1 [Compound 746]
< 10	< 10	C[C@@H]1CN(c2cccc(-c3csc(NC(=O)CNC(=O)c4ccn(C(C)(C)C(F)F)c4)n3)n2)C[C@H](C)O1 [Compound 748]
> 100	> 100	CC(F)C(C)(F)n1ccc(C(=O)NCC(=O)Nc2nc(-c3cccc(N4C[C@@H](C)O[C@@H](C)C4)n3)cs2)c1 (stereo partly drawn) [Compound 749]
> 10	> 10	CS(=O)(=O)n1ccc(C(=O)NCC(=O)Nc2nc(-c3cccc(C45CCOCC4C5)n3)cs2)c1 (stereo not drawn) [Compound 750, 1-methylsulfonyl-N-[2-[[4-[6-(3-oxabicyclo[4.1.0]heptan-6-yl)-2-pyridyl]thiazol-2-yl]amino]-2-oxo-ethyl]pyrrole-3-carboxamide]

IC50 [1] [nM]	IC50 [2] [nM]	SMILES
> 10	> 10	CC(C)(C)n1ccc(C(=O)NCC(=O)Nc2nc(-c3cccc(C45CCOCC4C5)n3)cs2)c1 (stereo not drawn) [Compound 751]
> 10	> 10	COC[C@H](NC(=O)c1ccn(S(C)(=O)=O)c1)C(=O)Nc1nc(-c2cccc([C@]34CCOC[C@H]3C4)n2)cs1 [Compound 755]
> 100	> 10	COC[C@H](NC(=O)c1ccn(S(C)(=O)=O)c1)C(=O)Nc1nc(-c2cccc([C@@]34CCOC[C@@H]3C4)n2)cs1 [Compound 756]
> 100	> 100	CN(C)[C@H]1CCN(c2cccc(-c3csc(NC(=O)CNC(=O)c4ccn(S(C)(=O)=O)c4)n3)n2)CC1(F)F [Compound 757]
< 10	< 10	COC[C@H](NC(=O)c1ccn(S(C)(=O)=O)c1)C(=O)Nc1nc(-c2cc(F)c3c(c2)CCN3C)cs1 [Compound 758]
> 10	> 10	COC[C@@H](NC(=O)c1ccn(S(C)(=O)=O)c1)C(=O)Nc1nc(-c2cc(F)c3c(c2)CCN3C)cs1 [Compound 759]
> 100	> 100	CN[C@H]1CCN(c2cccc(-c3csc(NC(=O)CNC(=O)c4ccn(S(C)(=O)=O)c4)n3)n2)CC1(F)F [Compound 760]
> 10	> 10	CN(C)[C@@H]1CCN(c2cccc(-c3csc(NC(=O)CNC(=O)c4ccn(S(C)(=O)=O)c4)n3)n2)CC1(F)F [Compound 762]
< 10	< 10	CN[C@@H]1CCN(c2cccc(-c3csc(NC(=O)CNC(=O)c4ccn(S(C)(=O)=O)c4)n3)n2)CC1(F)F [Compound 763, N-[2-[[4-[6-[(4R)-3,3-difluoro-4-(methylamino)-1-piperidyl]-2-pyridyl]thiazol-2-yl]amino]-2-oxo-ethyl]-1-methylsulfonyl-pyrrole-3-carboxamide]
< 10	< 10	CS(=O)(=O)n1ccc(C(=O)NCC(=O)Nc2nc(-c3cccc(N4CC[C@H]5OCC[C@@H]5C4)n3)cs2)c1 [Compound 764]
> 100	> 10	CCCOC(=O)N1CCC(c2csc(NC(=O)CNC(=O)c3ccn(S(C)(=O)=O)c3)n2)CC1 [Compound 765, propyl 4-[2-[[2-[(1-methylsulfonylpyrrole-3-carbonyl)amino]acetyl]amino]thiazol-4-yl]piperidine-1-carboxylate]
< 10	< 10	CS(=O)(=O)n1ccc(C(=O)NCC(=O)Nc2nc(-c3cccc(N4CC[C@@H]5OCC[C@H]5C4)n3)cs2)c1 [Compound 766]
> 10	< 10	C[C@@H]1CN(c2cccc(-c3csc(NC(=O)[C@H](C)NC(=O)c4ccn(S(C)(=O)=O)c4)n3)n2)C[C@H](C)O1 [Compound 767]
> 100	> 100	C[C@@H]1CN(c2cccc(-c3csc(NC(=O)[C@@H](C)NC(=O)c4ccn(S(C)(=O)=O)c4)n3)n2)C[C@H](C)O1 [Compound 768]
> 10	> 10	C[C@@H]1CN(c2cccc(-c3csc(NC(=O)[C@H](C)NC(=O)c4ccn(C(C)(C)C)c4)n3)n2)C[C@H](C)O1 [Compound 769]
> 10	> 10	CCCOC(=O)N1CCC[C@H](c2csc(NC(=O)CNC(=O)c3ccn(S(C)(=O)=O)c3)n2)C1 [Compound 771]
< 10	< 10	COC[C@H](NC(=O)c1ccn(S(C)(=O)=O)c1)C(=O)Nc1nc(-c2cccc(N3CC[C@H]4COC[C@@H]4C3)n2)cs1 [Compound 772]
< 10	< 10	COC[C@H](NC(=O)c1ccn(S(C)(=O)=O)c1)C(=O)Nc1nc(-c2cccc(N3CC[C@@H]4COC[C@H]4C3)n2)cs1 [Compound 773]
< 10	< 10	COC[C@H](NC(=O)c1ccn(S(C)(=O)=O)c1)C(=O)Nc1nc(-c2cccc(N3CC[C@H]4OCC[C@@H]4C3)n2)cs1 [Compound 774]
> 10	< 10	COC[C@H](NC(=O)c1ccn(S(C)(=O)=O)c1)C(=O)Nc1nc(-c2cccc(N3CC[C@@H]4OCC[C@H]4C3)n2)cs1 [Compound 775]
> 10	> 10	CS(=O)(=O)n1ccc(C(=O)NCC(=O)Nc2nc(-c3cccc(C4CCCOC4)c3)cs2)c1 (stereo not drawn) [Compound 776, 1-methylsulfonyl-N-[2-oxo-2-[[4-(3-tetrahydropyran-3-ylphenyl)thiazol-2-yl]amino]ethyl]pyrrole-3-carboxamide]
> 10	> 10	C[C@@H]1CN(c2cccc(-c3csc(NC(=O)CNC(=O)c4ccn(C(C)(C)C)n4)n3)c2)C[C@H](C)O1 [Compound 777]
> 100	> 10	C[C@@H]1CN(c2cccc(-c3csc(NC(=O)CNC(=O)c4cn(C(C)(C)CO)cn4)n3)n2)C[C@H](C)O1 [Compound 778]
> 100	> 100	Cn1ccc(-c2cccc(-c3csc(NC(=O)CNC(=O)c4cn(C5(C#N)CC5)cn4)n3)c2)n1 [Compound 780]
> 100	> 10	C[C@@H]1CN(c2cccc(-c3csc(NC(=O)CNC(=O)c4cn(C5(C#N)CC5)cn4)n3)n2)C[C@H](C)O1 [Compound 781]
